# Source: PMC11478334, “Quaternized Curcumin Derivative—Synthesis, Physicochemical Characteristics, and Photocytotoxicity, Including Antibacterial Activity after Irradiation with Blue Light” (Molecules, 2024)
# Read-outs that look alike come from different tables or passages of the source.
# Experiments:
# [1] = system: MRC-5 fibroblasts; parameters: method as in Lazewski et al. 32; conditions: ref Lazewski et al. 32, cited from earlier work
# [2] = system: S. aureus; conditions: 10 µM; 440 nm; 1.944 J/cm^2; 3.6 mW/cm^2; 8.8 min; cited from earlier work
# [3] = system: Pseudomonas aeruginosa NCTC 6749; assay: In vitro photodynamic inactivation of planktonic cells, 470 nm LED; assay type: cell-based
# Description: The second experiment was designed to determine the time and concentration required to achieve the biological effect observed in the first experiment and to extend the study to other strains (Figure 12). Apart from S. aureus and E. coli, the Gram-positive Streptococcus pyogenes ATCC 19615, which is the etiologic agent of tonsillitis, and the Gram-negative Pseudomonas aeruginosa NCTC 6749, which is a major threat to hospitalized and immunocompromised patients due to its high antibiotic resistance, were used. The observed effect was strictly concentration-dependent (Table 6). According to the results, Gram-positive bacteria appear to be the most susceptible to the applied photocytotoxicity study. […] For S. pyogenes, the results were even more pronounced, as the complete eradication under the influence of compound 3 at a concentration of 10 µM occurred after only 5 min of irradiation, while at a concentration of 1 µM, complete eradication occurred after 15 min of irradiation. Interesting results were also obtained for Gram-negative bacteria. […] A high level of eradication of P. aeruginosa in the presence of compound 3 (10 µM) was observed after only 5 min of irradiation (log reduction: 4.29). […] Reductions in microbial survival were still observed with a decrease in compound concentration, but complete eradication was not achieved within the irradiation time.
# The microorganisms used in the study were (i) standard strains of bacteria: Staphylococcus aureus NCTC 4163, Escherichia coli ATCC 25922, Pseudomonas aeruginosa NCTC 6749, and Streptococcus […] ATCC 19615, and (ii) fungi: Candida albicans ATCC 10231. The standard strains were obtained from the National Collection of Type Cultures (NCTC, Salisbury, UK) and the American Type Culture Collection (ATCC, Manassas, VA, USA). Bacterial and yeast strains were stored in Microbank cryogenic vials (Pro-Lab Diagnostics, Richmond Hill, ON, Canada) at −70 °C ± 10 °C. The bacteria were cultured aerobically in brain–heart infusion (BHI) broth (OXOID, Basingstoke, UK) at 36 °C ± 1 °C for 20 h. C. albicans cultures were grown in Sabouraud dextrose broth (SDB, Merck, Steinheim, Germany) at 36 °C for 20 h.
# The organisms were harvested by centrifugation (3000× g for 15 min) and resuspended in 1.5 mL of 10 mM PBS, pH, 7.0 (Sigma-Aldrich, St. Louis, MO, USA). The cells were then diluted 1/100 in PBS to a final concentration of about 10^7 colony-forming units (CFUs)/mL. Aliquots (100 μL) of a standardized microbial suspension were placed in the wells of microtiter plates, and an equal volume of a solution of the tested compound was added to give final concentrations of 1 × 10^−5 (10 µM) and 1 × 10^−6 M (1 µM) (groups P+). Negative control wells contained the bacterial or yeast suspension and PBS without the photosensitizer (groups P−). All the samples were incubated in the dark for 20 min and irradiated by the LED panel at a distance of 10 mm for a specific period, depending on the experiment (groups L+). To evaluate the antimicrobial activity of the tested compounds, duplicate experimental samples were prepared but not irradiated (groups L−). Viable microorganisms were measured by counting the number of colony-forming units (CFUs) after appropriate serial dilution and culture on tryptic soy agar plates (TSA, OXOID, Basingstoke, UK) or Columbia Blood Agar with Sheep Blood (CAS, OXOID, Basingstoke, UK) for bacteria and Sabouraud dextrose agar (SDA, Merck, Steinheim, Germany) for fungi, following incubation at 36 °C ± 1 °C for 24–72 h. The number of surviving organisms and the log10 reduction in microbial cells for each sample were calculated using a formula available in the literature.
# Lamp type—LED λmax~470 nm (LIU470A LED Array Light Source; Thorlabs Inc., Bergkirchen, Germany); irradiance—16.67 mW/cm^2 (measured with PM16-130 Power Meter, Thorlabs Inc., Bergkirchen, Germany, and Optel Opole Sp. z o.o., Opole, Poland).
molecule,measurement,setting,value
F[B-]1(F)OC(/C=C/c2ccc(OCCN3CCOCC3)cc2)=CC(/C=C/c2ccc(OCCN3CCOCC3)cc2)=[O+]1 [Compound 2],melting point,,170 to 173 °C
Curcumin [reference compound],IC50,[1]; after 24 h,70.4 ± 12.5 µM
same,IC50,[1]; after 48 h,45.3 ± 3.18 µM
same,Efficiency (log reduction),[2],5.3 log
C[N+]1(CCOc2ccc(C=CC3=CC(C=Cc4ccc(OCC[N+]5(C)CCOCC5)cc4)=[O+][B-](F)(F)O3)cc2)CCOCC1 [Compound 3],Log Red.,"[3]; 1 µM, 5 min irradiation 470 nm",0.86 log
same,Log Red.,"[3]; 1 µM, 15 min irradiation 470 nm",2.32 log
same,Log Red.,"[3]; 1 µM, 25 min irradiation 470 nm",2.83 log
same,Log Red.,"[3]; 1 µM, 30 min irradiation 470 nm (30 J/cm^2)",3.32 log
same,Log Red.,"[3]; 10 µM, 5 min irradiation 470 nm (5 J/cm^2)",4.29 log
same,Log Red.,"[3]; 10 µM, 15 min irradiation 470 nm",4.75 log
same,Log Red.,"[3]; 10 µM, 25 min irradiation 470 nm (25 J/cm^2)",>4.85 log
